Measured values: patent publication US7420083B2, “Substituted aryloximes” (Wyeth, priority 2003, dated 2008)

Tests used:
[1] = molecular target: T1, recombinant human plasminogen activator inhibitor-1 (PAI-1) (Homo sapiens, UniProt P05121); assay: Screening for PAI-1 inhibition (chromogenic tPA activity assay, Spectrozyme-tPA); type: biochemical; conditions: for IC50: footnote b: IC50 determined by a modification of the Primary Screen for PAI-1 Inhibition
T1 construct: purchased Molecular Innovations, Royal Oak, Mich
Method: Screening for PAI-1 inhibition. Test compounds are dissolved in DMSO at a final concentration of 10 mM, then diluted 100×in physiologic buffer. The inhibitory assay is initiated by the addition of the test compound (1-100 μM final concentration, maximum DMSO concentration of 0.2%) in a pH 6.6 buffer containing 140 nM recombinant human plasminogen activator inhibitor-1 (PAI-1; Molecular Innovations, Royal Oak, Mich.). Following a 1 hour incubation at room temperature, 70 nM of recombinant human tissue plasminogen activator (tPA) is added, and the combination of the test compound, PAI-1 and tPA is incubated for an additional 30 minutes. Following the second incubation, Spectrozyme-tPA (American Diagnostica, Greenwich, Conn.), a chromogenic substrate for tPA, is added and absorbance read at 405 nm at 0 and 60 minutes. Relative PAI-1 inhibition is equal to the residual tPA activity in the presence of the test compounds and PAI-1. Control treatments include the complete inhibition of tPA by PAI-1 at the molar ratio employed (2:1), and the absence of any effect of the test compound on tPA alone.

[2] = PAI-1 inhibition at 25 μM test compound, pH 6.6 buffer, 140 nM PAI-1, 70 nM tPA

T1 sequence (P05121 24-402): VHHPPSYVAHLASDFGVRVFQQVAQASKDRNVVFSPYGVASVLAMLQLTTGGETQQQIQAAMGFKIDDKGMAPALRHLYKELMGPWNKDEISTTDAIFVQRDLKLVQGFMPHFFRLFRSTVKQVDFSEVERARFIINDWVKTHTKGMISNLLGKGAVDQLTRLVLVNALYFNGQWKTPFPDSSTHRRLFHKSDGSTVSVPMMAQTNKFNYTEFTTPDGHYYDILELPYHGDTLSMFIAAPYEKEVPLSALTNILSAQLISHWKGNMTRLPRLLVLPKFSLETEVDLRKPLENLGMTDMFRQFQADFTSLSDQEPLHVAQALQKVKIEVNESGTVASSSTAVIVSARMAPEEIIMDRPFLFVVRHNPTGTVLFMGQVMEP

Structure (SMILES) | melting point [°C] | inhibition at 25 µM [1, 2] [%] | IC50 [1] [µM] | % Inhibition @ 25 μM [1, 2] [%]
CC(=NOCCCOc1ccc(CC(=O)O)cc1)c1ccc(C(C)(C)C)cc1 [Compound 1, (4-{3-[1-(4-tert-Butyl-phenyl)-ethylideneaminooxy]-propoxy}-phenyl)-acetic Acid] | 98.7 to 99.7 | 39 |  | 
CC(=NOCc1ccc(CC(=O)O)cc1)c1ccc(C(C)(C)C)cc1 [Compound 2, {4-[1-(4-tert-Butyl-phenyl)-ethylideneaminooxymethyl]-phenyl}-acetic Acid] | 148.9 to 150 | 30 |  | 
CC(C)(C)c1ccc(C=NOCc2ccc(CC(=O)O)cc2)cc1 [Compound 3, [4-(4-tert-Butyl-benzylideneaminooxymethyl]-phenyl}-acetic Acid] | 93.3 to 96.2 | 19 |  | 
C/C(=N\OCCOc1ccc(C(=O)O)c(O)c1)c1ccc(C(C)(C)C)cc1 [Compound 5, 4-{2-[({(E)-1-[4-(tert-Butyl)-phenyl]-ethylidene}amino)oxy]-ethoxy}-2-hydroxy-benzoic Acid] | 157.4 to 158.7 |  | 20.2 | 
CC(C)(C)c1ccc(C=NOCCOc2ccc(C(=O)O)c(O)c2)cc1 [Compound 7, 4-{2-[({[4-(tert-Butyl)phenyl]methylidene}amino)oxy]ethoxy}-2-hydroxybenzoic Acid] | 161.4 to 162.7 | 33 |  | 
CC(C)(C)c1ccc(/C=N/OCCOc2ccc(C(=O)O)c(OC(=O)c3ccc(C(F)(F)F)cc3)c2)cc1 [Compound 8, 4-{2-[({(E)-[4-(tert-Butyl)phenyl]methylidene}amino)oxy]ethoxy}-2-{[4-(trifluoromethyl)benzoyl]oxy}benzoic Acid] | 146.3 to 147.9 | 1 |  | 
COc1ccc(C(=O)Oc2cc(OCCO/N=C/c3ccc(C(C)(C)C)cc3)ccc2C(=O)O)cc1 [Compound 9, 4-{2-[({(E)-[4-(tert-Butyl)phenyl]methylidene}amino)oxy]ethoxy}-2-[(4-methoxybenzoyl)oxy]benzoic Acid] | 115.5 to 117.5 |  | 25.6 | 
CC(C)(C)c1ccc(/C=N/OCCOc2ccc(C(=O)O)c(OC(=O)c3ccccc3)c2)cc1 [Compound 11, 2-(Benzoyloxy)-4-{2-[({(E)-[4-(tert-butyl)phenyl]methylidene}amino)oxy]ethoxy}benzoic Acid] | 129.3 to 130.6 |  | 8.4 | 
C/C(=N\OCCOc1ccc(C(=O)O)cc1Cl)c1ccc(C(C)(C)C)cc1 [Compound 12, 4-{2-[({(E)-1-[4-(tert-Butyl)phenyl]ethylidene}amino)oxy]-ethoxy}-3-chloro-benzoic Acid] | 167.1 to 168.8 |  | 11.2 | 
C/C(=N\OCCOc1ccc(C(=O)O)c(Cl)c1)c1ccc(C(C)(C)C)cc1 [Compound 13, 4-{2-[({(E)-1-[4-(tert-Butyl)phenyl]ethylidene}amino)oxy]-ethoxy}-2-chloro-benzoic Acid] | 142.7 to 143.9 | 34 |  | 
CC(C)(C)c1ccc(C=NOCCOc2ccc(C(=O)O)c(OCc3ccc(C(F)(F)F)cc3)c2)cc1 [Compound 14, 4-{2-[({[4-(tert-Butyl)phenyl]methylidene}amino)oxy]ethoxy}-2-{[4-(trifluoromethyl)benzyl]oxy}benzoic acid] | 164.1 to 164.8 | 28 |  | 
CC(C)(C)c1ccc(/C=N/OCCCOc2ccc(CCC(=O)O)cc2)cc1 [Compound 16, 3-(4-{3-[({(E)-[4-(tert-butyl)phenyl]methylidene}amino)oxy]propoxy}phenyl)propanoic Acid] | 101.2 to 102.1 | 42 |  | 
CC(C)(C)c1ccc(C=NOCCCOc2ccc(Cc3nnn[nH]3)cc2)cc1 [Compound 17, 4-(tert-Butyl)benzaldehyde 0-{3-[4-(1H-tetraazol-5-ylmethyl)-phenoxy]-propyl}oxime] |  |  |  | 35
CC(C)(C)c1ccc(/C=N/OCCCOc2ccc(C(=O)O)c(NC(=O)c3ccc(C(C)(C)C)cc3)c2)cc1 [Compound 18, 2-{[4-(tert-Butyl)benzoyl]amino}-4-{3-[({(E)-[4-(tert-butyl)phenyl]methylidene}amino)oxy]propoxy}benzoic Acid] | 192.3 to 193.8 |  | 18.5 | 
O=C(Nc1cc(OCCCO/N=C/c2ccc(-c3ccccc3)cc2)ccc1C(=O)O)c1ccc(C(F)(F)F)cc1 [Compound 20, 4-[3-({[(1E)-1,1′-Biphenyl-4-ylmethylidene]amino}oxy)propoxy]-2-{[4-(trifluoromethyl)benzoyl]amino}benzoic Acid] | 205.6 to 206.6 |  | 25.7 | 
C/C(=N\OCCCOc1ccc(C(=O)O)c(NC(=O)c2ccc(C(F)(F)F)cc2)c1)c1ccccc1 [Compound 23, 4-[3-({[(1E)-1-Phenylethylidene]amino}oxy)propoxy]-2-{[4-(trifluoromethyl)benzoyl]amino}benzoic acid] | 174.3 to 175.7 | 26 |  | 
O=C(O)c1ccc(OCCCO/N=C/c2ccc(-c3ccccc3)cc2)cc1NC(=O)c1ccccc1C(F)(F)F [Compound 26, 4-[3-({[(1E)-1,1′-biphenyl-4-ylmethylidene]amino}oxy)propoxy]-2-{[2-(trifluoromethyl)benzoyl]amino}benzoic Acid] | 170.5 to 172.5 | 24 |  | 
O=C(Nc1cc(OCCCO/N=C/c2cc(C(F)(F)F)cc(C(F)(F)F)c2)ccc1C(=O)O)c1ccc(OC(F)(F)F)cc1 [Compound 28, 4-{3-[({(1E)-[3,5-Bis (trifluoromethyl)phenyl]methylidene}amino)oxy]propoxy}-2-{[4-(trifluoromethoxy)benzoyl]amino}benzoic Acid] | 184.5 to 185.5 | 51 |  | 
O=C(Nc1cc(OCCCO/N=C/c2ccc(-c3ccccc3)cc2)ccc1C(=O)O)c1ccc(OC(F)(F)F)cc1 [Compound 29, 4-[3-({[(1E)-1,1′-Biphenyl-4-ylmethylidene]amino}oxy)propoxy]-2-{[4-(trifluoromethoxy)benzoyl]amino}benzoic Acid] | 194.5 to 195.5 | 70 |  | 
CC(C)(C)c1ccc(/C=N/OCCCOc2ccc(C(=O)O)c(NC(=O)c3ccc4ccccc4c3)c2)cc1 [Compound 34, 4-[3-({[(1E)-(4-tert-Butylphenyl)methylidene]amino}oxy)propoxy]-2-(2-naphthoylamino)benzoic Acid] | 156 to 158 | 14 |  | 
CC(C)(C)c1ccc(/C=N/OCCCOc2ccc(C(=O)O)c(NC(=O)/C=C/c3ccc(-c4ccccc4)cc3)c2)cc1 [Compound 35, 2-{[(2E)-3-(1,1′-Biphenyl-4-yl)prop-2-enoyl]amino}-4-[3-({[(1E)-(4-tert-butylphenyl)methylidene]amino}oxy)propoxy]-benzoic Acid] | 169 to 171 | 16 |  | 
CC(C)(C)c1ccc(/C=N/OCCCOc2ccc(C(=O)O)c(NC(=O)c3ccc(-c4ccccc4)cc3)c2)cc1 [Compound 36, 2-[(1,1′-Biphenyl-4-ylcarbonyl)amino]-4-[3-({[(1E)-(4-tert-butylphenyl)methylidene]amino}oxy)propoxy]benzoic Acid] | 155 to 158.5 | 23 |  | 
